Reference: ChEMBL document CHEMBL4118098, “Discovery of DS28120313 as a potent orally active hepcidin production inhibitor: Design and optimization of novel 4,6-disubstituted indazole derivatives” (Bioorg Med Chem Lett, 2017)
One block for each compound: values may come before it.

Legend:
[1] = target: Protein kinase C eta type (Homo sapiens) (UniProt P24723); assay: Inhibition of PKC-eta (unknown origin) at 0.19 uM relative to control
[2] = target: T1, Mitogen-activated protein kinase 12 (Homo sapiens) (UniProt P53778); assay: Inhibition of p38-gamma (unknown origin) at 0.19 uM relative to control
T1 sequence (whole entry): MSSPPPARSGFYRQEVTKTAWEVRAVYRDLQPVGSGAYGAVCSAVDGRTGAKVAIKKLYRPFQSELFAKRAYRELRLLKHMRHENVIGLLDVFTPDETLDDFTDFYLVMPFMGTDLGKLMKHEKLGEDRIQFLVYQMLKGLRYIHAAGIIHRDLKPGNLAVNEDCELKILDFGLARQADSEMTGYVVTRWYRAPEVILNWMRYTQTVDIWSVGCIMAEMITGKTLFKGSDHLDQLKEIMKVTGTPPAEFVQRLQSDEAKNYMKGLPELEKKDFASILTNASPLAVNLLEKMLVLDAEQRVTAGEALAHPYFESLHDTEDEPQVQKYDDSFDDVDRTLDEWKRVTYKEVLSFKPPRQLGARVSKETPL

[3] = test system: Proto-oncogene tyrosine-protein kinase receptor Ret (Homo sapiens), P07949 [M918T]; assay: Inhibition of RET M918T mutant (unknown origin) at 0.19 uM relative to control
[4] = target: Protein kinase C delta type (Homo sapiens) (UniProt Q05655); assay: Inhibition of PKC-delta (unknown origin) at 0.19 uM relative to control
Protein kinase C delta type (Homo sapiens), sequence (Q05655 whole entry, looked up): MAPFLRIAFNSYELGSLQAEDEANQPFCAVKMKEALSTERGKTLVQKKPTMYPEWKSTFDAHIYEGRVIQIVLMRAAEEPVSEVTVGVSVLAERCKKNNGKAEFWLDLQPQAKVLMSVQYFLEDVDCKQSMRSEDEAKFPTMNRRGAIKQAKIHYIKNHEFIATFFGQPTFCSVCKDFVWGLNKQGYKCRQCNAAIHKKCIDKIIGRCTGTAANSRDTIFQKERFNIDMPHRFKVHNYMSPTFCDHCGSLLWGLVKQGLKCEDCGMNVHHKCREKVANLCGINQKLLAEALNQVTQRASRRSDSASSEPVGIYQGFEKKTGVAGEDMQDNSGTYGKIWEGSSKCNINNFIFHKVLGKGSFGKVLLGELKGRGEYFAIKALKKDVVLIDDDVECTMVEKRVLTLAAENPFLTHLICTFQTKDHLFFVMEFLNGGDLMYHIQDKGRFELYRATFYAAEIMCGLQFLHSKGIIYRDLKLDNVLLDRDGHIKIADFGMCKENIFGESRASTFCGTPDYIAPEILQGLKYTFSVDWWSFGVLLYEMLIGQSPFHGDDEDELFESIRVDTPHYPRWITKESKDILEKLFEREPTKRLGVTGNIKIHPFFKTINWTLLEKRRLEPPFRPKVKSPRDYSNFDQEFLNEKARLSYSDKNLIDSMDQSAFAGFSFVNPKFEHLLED

[5] = target: T2, Tyrosine-protein kinase TXK (Homo sapiens) (UniProt P42681); assay: Inhibition of TXK (unknown origin) at 0.19 uM relative to control
T2 sequence (whole entry): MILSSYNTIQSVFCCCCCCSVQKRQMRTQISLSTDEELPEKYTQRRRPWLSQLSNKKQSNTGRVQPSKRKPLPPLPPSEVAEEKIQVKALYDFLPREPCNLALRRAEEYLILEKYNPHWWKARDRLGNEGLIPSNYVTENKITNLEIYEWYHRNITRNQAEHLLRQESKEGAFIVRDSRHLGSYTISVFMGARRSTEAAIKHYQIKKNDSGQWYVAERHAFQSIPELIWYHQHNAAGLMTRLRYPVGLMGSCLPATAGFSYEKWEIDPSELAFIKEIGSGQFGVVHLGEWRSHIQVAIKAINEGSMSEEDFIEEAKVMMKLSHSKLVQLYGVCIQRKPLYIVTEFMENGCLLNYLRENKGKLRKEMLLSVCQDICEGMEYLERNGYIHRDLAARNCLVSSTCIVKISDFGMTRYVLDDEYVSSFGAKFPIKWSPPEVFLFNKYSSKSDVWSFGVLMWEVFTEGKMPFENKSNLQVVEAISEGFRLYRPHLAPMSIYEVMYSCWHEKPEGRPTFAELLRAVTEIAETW

[6] = target: Serine/threonine-protein kinase Nek2 (Homo sapiens) (UniProt P51955); assay: Inhibition of NEK2 (unknown origin) at 0.19 uM relative to control
Serine/threonine-protein kinase Nek2 (Homo sapiens), sequence (P51955 whole entry): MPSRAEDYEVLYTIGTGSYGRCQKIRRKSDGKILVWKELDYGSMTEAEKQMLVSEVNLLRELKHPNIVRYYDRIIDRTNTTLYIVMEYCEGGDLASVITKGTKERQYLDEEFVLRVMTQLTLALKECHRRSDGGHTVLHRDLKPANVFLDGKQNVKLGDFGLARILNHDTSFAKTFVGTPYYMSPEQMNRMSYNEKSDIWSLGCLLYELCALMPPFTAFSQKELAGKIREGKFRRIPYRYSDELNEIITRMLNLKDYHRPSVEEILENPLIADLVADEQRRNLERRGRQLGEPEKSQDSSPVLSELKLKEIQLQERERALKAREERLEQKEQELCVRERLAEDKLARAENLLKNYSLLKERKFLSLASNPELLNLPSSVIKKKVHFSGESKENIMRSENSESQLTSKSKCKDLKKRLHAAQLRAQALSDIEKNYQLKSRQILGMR

[7] = target: Tyrosine-protein kinase Tec (Homo sapiens) (UniProt P42680); assay: Inhibition of TEC (unknown origin) at 0.19 uM relative to control
[8] = target: Vascular endothelial growth factor receptor 1 (Homo sapiens) (UniProt P17948); assay: Inhibition of FLT1 (unknown origin) at 0.19 uM relative to control
Vascular endothelial growth factor receptor 1 (Homo sapiens), sequence (P17948 whole entry): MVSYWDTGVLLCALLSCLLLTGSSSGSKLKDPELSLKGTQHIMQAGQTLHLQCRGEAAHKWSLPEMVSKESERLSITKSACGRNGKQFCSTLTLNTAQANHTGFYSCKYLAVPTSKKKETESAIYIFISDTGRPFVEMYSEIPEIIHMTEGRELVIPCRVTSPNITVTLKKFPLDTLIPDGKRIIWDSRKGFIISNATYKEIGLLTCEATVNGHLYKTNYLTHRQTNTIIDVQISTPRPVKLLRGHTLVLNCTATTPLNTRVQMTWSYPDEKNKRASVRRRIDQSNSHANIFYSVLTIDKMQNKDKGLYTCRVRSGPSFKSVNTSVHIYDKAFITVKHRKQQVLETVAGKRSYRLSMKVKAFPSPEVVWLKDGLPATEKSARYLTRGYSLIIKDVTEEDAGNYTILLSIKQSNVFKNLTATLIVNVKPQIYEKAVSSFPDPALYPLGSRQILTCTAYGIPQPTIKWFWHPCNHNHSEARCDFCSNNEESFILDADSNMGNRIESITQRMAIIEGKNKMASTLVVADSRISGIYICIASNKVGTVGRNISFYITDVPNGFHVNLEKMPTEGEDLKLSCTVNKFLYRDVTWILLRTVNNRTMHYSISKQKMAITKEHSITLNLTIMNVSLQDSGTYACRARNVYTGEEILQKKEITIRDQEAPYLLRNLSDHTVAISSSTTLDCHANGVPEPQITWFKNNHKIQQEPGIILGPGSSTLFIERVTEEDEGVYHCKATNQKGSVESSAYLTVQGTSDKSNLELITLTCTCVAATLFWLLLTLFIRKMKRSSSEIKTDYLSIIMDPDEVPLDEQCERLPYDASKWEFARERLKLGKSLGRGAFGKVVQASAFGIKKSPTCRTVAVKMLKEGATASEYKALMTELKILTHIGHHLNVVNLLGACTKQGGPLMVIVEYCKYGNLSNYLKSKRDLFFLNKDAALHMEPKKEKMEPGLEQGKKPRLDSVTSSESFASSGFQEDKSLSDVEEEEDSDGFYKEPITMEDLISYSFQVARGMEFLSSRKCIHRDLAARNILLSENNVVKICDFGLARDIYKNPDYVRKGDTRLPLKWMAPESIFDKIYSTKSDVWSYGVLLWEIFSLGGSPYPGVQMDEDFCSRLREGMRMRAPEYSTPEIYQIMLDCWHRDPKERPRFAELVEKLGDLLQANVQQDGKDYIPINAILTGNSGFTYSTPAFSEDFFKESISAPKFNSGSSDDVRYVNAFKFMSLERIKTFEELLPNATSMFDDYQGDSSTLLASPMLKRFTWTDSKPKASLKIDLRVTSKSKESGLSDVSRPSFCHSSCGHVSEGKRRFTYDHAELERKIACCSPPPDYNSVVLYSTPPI

[9] = target: Mitogen-activated protein kinase 11 (Homo sapiens) (UniProt Q15759); assay: Inhibition of p38-beta2 (unknown origin) at 0.19 uM relative to control
Mitogen-activated protein kinase 11 (Homo sapiens), sequence (Q15759 whole entry): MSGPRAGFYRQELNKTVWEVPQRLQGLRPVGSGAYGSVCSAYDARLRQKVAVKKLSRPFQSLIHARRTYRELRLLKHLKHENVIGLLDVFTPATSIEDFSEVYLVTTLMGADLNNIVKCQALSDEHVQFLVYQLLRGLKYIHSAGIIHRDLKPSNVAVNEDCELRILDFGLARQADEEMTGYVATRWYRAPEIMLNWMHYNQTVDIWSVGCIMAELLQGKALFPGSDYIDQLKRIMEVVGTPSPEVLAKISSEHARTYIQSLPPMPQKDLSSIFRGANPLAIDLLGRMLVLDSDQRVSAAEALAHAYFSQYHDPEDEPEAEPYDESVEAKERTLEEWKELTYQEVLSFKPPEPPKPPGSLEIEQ

[10] = target: T3, Testis-specific serine/threonine-protein kinase 2 (Homo sapiens) (UniProt Q96PF2); assay: Inhibition of TSSK2 (unknown origin) at 0.19 uM relative to control
T3 sequence (whole entry): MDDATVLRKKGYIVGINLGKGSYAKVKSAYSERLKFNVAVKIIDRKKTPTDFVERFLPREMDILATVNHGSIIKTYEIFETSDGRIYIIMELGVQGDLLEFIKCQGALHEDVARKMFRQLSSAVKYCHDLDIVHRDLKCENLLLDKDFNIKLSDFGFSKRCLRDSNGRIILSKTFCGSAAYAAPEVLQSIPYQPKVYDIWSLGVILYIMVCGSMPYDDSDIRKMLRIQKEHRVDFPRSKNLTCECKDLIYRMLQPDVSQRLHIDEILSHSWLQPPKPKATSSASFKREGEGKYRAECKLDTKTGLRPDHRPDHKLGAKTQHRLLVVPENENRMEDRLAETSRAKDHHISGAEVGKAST

[11] = target: Ephrin type-B receptor 4 (Homo sapiens) (UniProt P54760); assay: Inhibition of EPHB4 (unknown origin) at 0.19 uM relative to control
Ephrin type-B receptor 4 (Homo sapiens), sequence (P54760 whole entry): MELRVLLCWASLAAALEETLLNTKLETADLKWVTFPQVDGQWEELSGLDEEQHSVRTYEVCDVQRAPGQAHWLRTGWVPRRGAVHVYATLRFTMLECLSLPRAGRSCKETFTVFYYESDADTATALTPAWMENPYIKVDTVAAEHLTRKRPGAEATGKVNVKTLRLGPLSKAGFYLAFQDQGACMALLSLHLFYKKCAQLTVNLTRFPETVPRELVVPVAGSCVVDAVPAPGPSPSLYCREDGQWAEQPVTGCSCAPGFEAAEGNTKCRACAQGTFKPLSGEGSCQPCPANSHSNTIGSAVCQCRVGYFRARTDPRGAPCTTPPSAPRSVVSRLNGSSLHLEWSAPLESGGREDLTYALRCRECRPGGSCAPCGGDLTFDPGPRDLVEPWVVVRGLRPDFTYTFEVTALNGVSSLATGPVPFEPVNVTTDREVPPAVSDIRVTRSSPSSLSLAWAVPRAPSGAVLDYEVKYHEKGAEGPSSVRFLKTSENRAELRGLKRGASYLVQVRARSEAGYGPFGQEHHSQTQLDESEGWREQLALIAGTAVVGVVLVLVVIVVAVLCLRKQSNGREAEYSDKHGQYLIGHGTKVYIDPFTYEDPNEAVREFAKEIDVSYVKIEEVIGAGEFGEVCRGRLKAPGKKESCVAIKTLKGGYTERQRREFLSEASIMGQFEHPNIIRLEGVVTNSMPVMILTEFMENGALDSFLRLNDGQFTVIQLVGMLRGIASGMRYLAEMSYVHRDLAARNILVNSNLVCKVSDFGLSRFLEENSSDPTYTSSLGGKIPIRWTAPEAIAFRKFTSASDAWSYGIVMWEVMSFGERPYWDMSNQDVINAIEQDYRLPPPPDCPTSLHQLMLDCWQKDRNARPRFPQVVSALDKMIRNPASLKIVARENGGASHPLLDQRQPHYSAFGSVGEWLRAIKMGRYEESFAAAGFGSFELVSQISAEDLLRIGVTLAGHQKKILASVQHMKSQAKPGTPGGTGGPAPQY

[12] = target: Rho-associated protein kinase 2 (Homo sapiens) (UniProt O75116); assay: Inhibition of ROCK2 (unknown origin) at 0.164 uM relative to control
[13] = target: Serine/threonine-protein kinase 10 (Homo sapiens) (UniProt O94804); assay: Inhibition of LOK (unknown origin) at 0.164 uM relative to control
[14] = target: RAF proto-oncogene serine/threonine-protein kinase (Homo sapiens) (UniProt P04049); assay: Inhibition of c-Raf (unknown origin) at 0.164 uM relative to control
RAF proto-oncogene serine/threonine-protein kinase (Homo sapiens), sequence (P04049 whole entry): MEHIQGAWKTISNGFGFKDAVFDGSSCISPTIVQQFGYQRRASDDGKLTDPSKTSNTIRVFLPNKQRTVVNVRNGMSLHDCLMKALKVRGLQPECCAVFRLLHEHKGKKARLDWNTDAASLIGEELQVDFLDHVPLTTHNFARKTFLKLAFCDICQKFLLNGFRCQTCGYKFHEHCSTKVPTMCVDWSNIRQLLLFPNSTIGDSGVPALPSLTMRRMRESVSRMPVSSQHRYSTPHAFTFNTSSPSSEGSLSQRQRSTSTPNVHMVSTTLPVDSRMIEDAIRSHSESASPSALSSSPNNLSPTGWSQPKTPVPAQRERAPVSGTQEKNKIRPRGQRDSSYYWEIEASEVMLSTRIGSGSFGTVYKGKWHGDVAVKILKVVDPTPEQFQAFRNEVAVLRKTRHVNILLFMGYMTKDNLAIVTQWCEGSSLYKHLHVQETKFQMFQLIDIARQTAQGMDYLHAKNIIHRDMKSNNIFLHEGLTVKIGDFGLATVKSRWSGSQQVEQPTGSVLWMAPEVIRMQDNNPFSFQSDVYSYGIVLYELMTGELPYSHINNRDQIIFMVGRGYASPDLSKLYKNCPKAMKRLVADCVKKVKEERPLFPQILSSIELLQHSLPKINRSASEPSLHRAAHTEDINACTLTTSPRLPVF

[15] = target: Serine/threonine-protein kinase PAK 3 (Homo sapiens) (UniProt O75914); assay: Inhibition of PAK3 (unknown origin) at 0.164 uM relative to control
Serine/threonine-protein kinase PAK 3 (Homo sapiens), sequence (O75914 whole entry, looked up): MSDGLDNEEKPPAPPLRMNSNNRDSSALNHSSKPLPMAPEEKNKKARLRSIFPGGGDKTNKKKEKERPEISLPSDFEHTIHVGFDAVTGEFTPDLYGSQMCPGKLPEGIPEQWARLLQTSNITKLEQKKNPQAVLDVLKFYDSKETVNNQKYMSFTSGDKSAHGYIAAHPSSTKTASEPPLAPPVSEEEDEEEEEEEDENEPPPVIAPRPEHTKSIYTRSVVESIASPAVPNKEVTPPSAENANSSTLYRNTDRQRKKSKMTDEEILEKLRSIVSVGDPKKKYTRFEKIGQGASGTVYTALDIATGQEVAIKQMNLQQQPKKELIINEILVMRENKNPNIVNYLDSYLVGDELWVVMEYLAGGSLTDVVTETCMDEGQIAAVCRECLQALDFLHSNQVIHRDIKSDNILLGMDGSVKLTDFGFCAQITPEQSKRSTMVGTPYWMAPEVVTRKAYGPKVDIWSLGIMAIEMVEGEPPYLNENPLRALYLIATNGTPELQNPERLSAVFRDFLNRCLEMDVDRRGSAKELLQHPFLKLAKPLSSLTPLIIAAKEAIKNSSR

[16] = target: T4, Serine/threonine-protein kinase DCLK1 (Homo sapiens) (UniProt O15075); assay: Inhibition of DCAMKL1 (unknown origin) at 0.45 uM relative to control
T4 sequence (whole entry): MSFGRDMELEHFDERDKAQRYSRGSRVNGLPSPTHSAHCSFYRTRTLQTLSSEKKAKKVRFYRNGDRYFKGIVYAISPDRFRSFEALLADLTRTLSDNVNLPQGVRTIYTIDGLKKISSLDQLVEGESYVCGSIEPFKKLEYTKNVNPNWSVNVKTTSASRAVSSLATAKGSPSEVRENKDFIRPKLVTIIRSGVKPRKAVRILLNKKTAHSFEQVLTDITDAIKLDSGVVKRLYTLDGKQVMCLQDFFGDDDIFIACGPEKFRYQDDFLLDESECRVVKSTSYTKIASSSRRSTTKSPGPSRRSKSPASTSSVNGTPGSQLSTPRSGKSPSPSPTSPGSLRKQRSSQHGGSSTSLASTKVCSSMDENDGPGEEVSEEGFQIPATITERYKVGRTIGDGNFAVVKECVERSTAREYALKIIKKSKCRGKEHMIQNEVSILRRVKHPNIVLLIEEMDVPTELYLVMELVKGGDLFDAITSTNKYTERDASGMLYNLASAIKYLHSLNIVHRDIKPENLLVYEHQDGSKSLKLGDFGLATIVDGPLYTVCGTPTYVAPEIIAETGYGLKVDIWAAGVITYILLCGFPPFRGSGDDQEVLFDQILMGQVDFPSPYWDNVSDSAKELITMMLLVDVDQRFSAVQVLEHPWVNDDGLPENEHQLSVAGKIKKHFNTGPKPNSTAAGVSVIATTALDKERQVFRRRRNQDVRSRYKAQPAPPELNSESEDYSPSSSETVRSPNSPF

- inhibition [1]: 2.7%
- inhibition [2]: -3%
- inhibition [3]: 41%
- inhibition [4]: 0%
- inhibition [5]: -8.3%
- inhibition [6]: 12%
- inhibition [7]: 2%
- inhibition [8]: 14.7%
- inhibition [9]: -1.7%
- inhibition [10]: -2%
- inhibition [11]: 0.3%
SMILES: Cc1[nH]nc(C2CC2)c1-c1ccc2c(-c3ccc(N4CCN(C)CC4)nc3)n[nH]c2c1

- inhibition [12]: -3%
- inhibition [13]: 3.7%
- inhibition [14]: 10%
- inhibition [15]: -2%
SMILES: COC(=O)Nc1cc(-c2c(C3CC3)n[nH]c2C)cc2[nH]ncc12

- inhibition [16]: 0%
SMILES: Cc1n[nH]c(C)c1-c1ccc2c(NC(=O)c3ccc(N4CCN(C)CC4)cc3)n[nH]c2c1
